Measured values reported in patent US12595266B2, “Pesticidally active heterocyclic derivatives with sulfur containing substituents” (SYNGENTA CROP PROTECTION AG, priority 2020, dated 2026).

Key:
Assay type in all cases: in vivo
[1] = system: Euschistus heros (Neotropical Brown Stink Bug); experiment: Activity against Euschistus heros (neotropical brown stink bug); settings: 120 h, application rate of 200 ppm, soybean leaves sprayed, N2 nymphs, 5 days after infestation, read-out: effect in at least one of the two categories (mortality or growth inhibition)
Protocol: Example B4: Activity Against Euschistus heros (Neotropical Brown Stink Bug)
Soybean leaves on agar in 24-well microtiter plates were sprayed with aqueous test solutions prepared from 10′000 ppm DMSO stock solutions. After drying the leaves were infested with N2 nymphs. The samples were assessed for mortality and growth inhibition in comparison to untreated samples 5 days after infestation.

[2] = system: Myzus persicae (Green Peach Aphid); experiment: Activity against Myzus persicae (green peach aphid), systemic activity; settings: 144 h, test rate of 24 ppm, roots of infested pea seedlings in test solution (systemic), 6 days
Protocol: Example B9: Activity Against Myzus persicae (Green Peach Aphid) Systemic Activity
Roots of pea seedlings infested with an aphid population of mixed ages were placed directly into aqueous test solutions prepared from 10′000 DMSO stock solutions. The samples were assessed for mortality 6 days after placing seedlings into test solutions.

[3] = system: Diabrotica balteata (Corn Root Worm); experiment: Activity against Diabrotica balteata (corn root worm); settings: 96 h, application rate of 200 ppm, maize sprouts sprayed, L2 larvae, 4 days after infestation, read-out: effect in at least one of the two categories (mortality or growth inhibition)
Protocol: Example B3: Activity Against Diabrotica balteata (Corn Root Worm)
Maize sprouts placed onto an agar layer in 24-well microtiter plates were treated with aqueous test solutions prepared from 10′000 ppm DMSO stock solutions by spraying. After drying, the plates were infested with L2 larvae (6 to 10 per well). The samples were assessed for mortality and growth inhibition in comparison to untreated samples 4 days after infestation.

[4] = system: Spodoptera littoralis (Egyptian Cotton Leaf Worm); experiment: Activity against Spodoptera littoralis (Egyptian cotton leaf worm); settings: foliar, 72 h, application rate of 200 ppm, cotton leaf discs sprayed, L1 larvae, 3 days after infestation, read-out: control (at least one of mortality, anti-feedant effect, growth inhibition)
Protocol: Example B8: Activity Against Spodoptera littoralis (Egyptian Cotton Leaf Worm)
Cotton leaf discs were placed onto agar in 24-well microtiter plates and sprayed with aqueous test solutions prepared from 10′000 ppm DMSO stock solutions. After drying the leaf discs were infested with five L1 larvae. The samples were assessed for mortality, anti-feeding effect, and growth inhibition in comparison to untreated samples 3 days after infestation. Control of Spodoptera littoralis by a test sample is given when at least one of the categories mortality, anti-feedant effect, and growth inhibition is higher than the untreated sample.

[5] = system: Myzus persicae (Green Peach Aphid); experiment: Activity against Myzus persicae (green peach aphid), feeding/contact activity; settings: foliar, 144 h, application rate of 200 ppm, sunflower leaf discs sprayed, aphid population of mixed ages, 6 days after infestation
Protocol: Example B6: Activity Against Myzus persicae (Green Peach Aphid) Feeding/Contact Activity
Sunflower leaf discs were placed onto agar in a 24-well microtiter plate and sprayed with aqueous test solutions prepared from 10′000 ppm DMSO stock solutions. After drying, the leaf discs were infested with an aphid population of mixed ages. The samples were assessed for mortality 6 days after infestation.

[6] = system: Chilo suppressalis (Striped Rice Stemborer); experiment: Activity against Chilo suppressalis (striped rice stemborer); settings: 144 h, application rate of 200 ppm, artificial diet, L2 larvae, 6 days after infestation, read-out: control (at least one of mortality, anti-feedant effect, growth inhibition)
Protocol: Example B2: Activity Against Chilo suppressalis (Striped Rice Stemborer)
24-well microtiter plates with artificial diet were treated with aqueous test solutions prepared from 10′000 ppm DMSO stock solutions by pipetting. After drying, the plates were infested with L2 larvae (6-8 per well). The samples were assessed for mortality, anti-feeding effect, and growth inhibition in comparison to untreated samples 6 days after infestation. Control of Chilo suppressalis by a test sample is given when at least one of the categories mortality, anti-feedant effect, and growth inhibition is higher than the untreated sample.

[7] = system: Plutella xylostella (Diamond Back Moth); experiment: Activity against Plutella xylostella (diamond back moth); settings: 192 h, application rate of 200 ppm, artificial diet, Plutella eggs, 8 days after infestation, read-out: effect in at least one of the two categories (mortality or growth inhibition)
Protocol: Example B7: Activity Against Plutella xylostella (Diamond Back Moth)
24-well microtiter plates with artificial diet were treated with aqueous test solutions prepared from 10′000 ppm DMSO stock solutions by pipetting. After drying, Plutella eggs were pipetted through a plastic stencil onto a gel blotting paper and the plate was closed with it. The samples were assessed for mortality and growth inhibition in comparison to untreated samples 8 days after infestation.

CCS(=O)(=O)c1c(N2Cc3cc4c(cc3C2=O)OC(F)(F)O4)nc(C2CC2)n1C [Compound P24, 6-(2-cyclopropyl-5-ethylsulfonyl-1-methyl-imidazol-4-yl)-2,2-difluoro-5H-[1,3]dioxolo[4,5-f]isoindol-7-one]
≥ 80%: percent effect (mortality or growth inhibition) at 200 ppm [1] | mortality at 24 ppm [2] | percent effect (mortality or growth inhibition) at 200 ppm [3] | percent control (mortality, anti-feedant effect or growth inhibition) at 200 ppm [4] | mortality at 200 ppm [5] | percent control (mortality, anti-feedant effect or growth inhibition) at 200 ppm [6] | percent effect (mortality or growth inhibition) at 200 ppm [7]

CCS(=O)(=O)c1c(N2Cc3cc4c(cc3C2=O)OC(F)(F)O4)nc(OCC(F)(F)F)n1C [Compound P6, 6-[5-ethylsulfonyl-1-methyl-2-(2,2,2-trifluoroethoxy)imidazol-4-yl]-2,2-difluoro-5H-[1,3]dioxolo[4,5-f]isoindol-7-one]
≥ 80%: percent effect (mortality or growth inhibition) at 200 ppm [3] | percent control (mortality, anti-feedant effect or growth inhibition) at 200 ppm [4] | percent control (mortality, anti-feedant effect or growth inhibition) at 200 ppm [6] | percent effect (mortality or growth inhibition) at 200 ppm [7]

CCS(=O)(=O)c1ccc(C2CC2)nc1N1Cc2cc3c(cc2C1=O)OC(F)(F)O3 [Compound P10, 6-(6-cyclopropyl-3-ethylsulfonyl-2-pyridyl)-2,2-difluoro-5H-[1,3]dioxolo[4,5-f]isoindol-7-one]
≥ 80%: percent effect (mortality or growth inhibition) at 200 ppm [1] | percent control (mortality, anti-feedant effect or growth inhibition) at 200 ppm [4] | percent control (mortality, anti-feedant effect or growth inhibition) at 200 ppm [6] | percent effect (mortality or growth inhibition) at 200 ppm [7]

CCS(=O)(=O)c1cc(N(C)C(C)=O)cnc1N1Cc2cc3c(cc2C1=O)OC(F)(F)O3 [Compound P18, N-[6-(2,2-difluoro-7-oxo-5H-[1,3]dioxolo[4,5-f]isoindol-6-yl)-5-ethylsulfonyl-3-pyridyl]-N-methyl-acetamide]
≥ 80%: percent effect (mortality or growth inhibition) at 200 ppm [1] | mortality at 200 ppm [5] | percent effect (mortality or growth inhibition) at 200 ppm [7]

CCS(=O)(=O)c1ccc(-n2cncn2)nc1N1Cc2cc3c(cc2C1=O)OC(F)(F)O3 [Compound P11, 6-[3-ethylsulfonyl-6-(1,2,4-triazol-1-yl)-2-pyridyl]-2,2-difluoro-5H-[1,3]dioxolo[4,5-f]isoindol-7-one]
≥ 80%: percent effect (mortality or growth inhibition) at 200 ppm [3] | percent control (mortality, anti-feedant effect or growth inhibition) at 200 ppm [4] | percent control (mortality, anti-feedant effect or growth inhibition) at 200 ppm [6] | percent effect (mortality or growth inhibition) at 200 ppm [7]

CCS(=O)(=O)c1c(N2Cc3cc4c(cc3C2=O)OC(F)(F)O4)nc(-c2cc(C3CC3)no2)n1C [Compound P26, 6-[2-(3-cyclopropylisoxazol-5-yl)-5-ethylsulfonyl-1-methyl-imidazol-4-yl]-2,2-difluoro-5H-[1,3]dioxolo[4,5-f]isoindol-7-one]
≥ 80%: percent effect (mortality or growth inhibition) at 200 ppm [3] | percent control (mortality, anti-feedant effect or growth inhibition) at 200 ppm [4] | mortality at 200 ppm [5] | percent control (mortality, anti-feedant effect or growth inhibition) at 200 ppm [6] | percent effect (mortality or growth inhibition) at 200 ppm [7]

CCS(=O)(=O)c1cc(OCC(F)(F)F)cnc1N1Cc2cc3c(cc2C1=O)OC(F)(F)O3 [Compound P8, 6-[3-ethylsulfonyl-5-(2,2,2-trifluoroethoxy)-2-pyridyl]-2,2-difluoro-5H-[1,3]dioxolo[4,5-f]isoindol-7-one]
≥ 80%: percent effect (mortality or growth inhibition) at 200 ppm [3] | percent control (mortality, anti-feedant effect or growth inhibition) at 200 ppm [4] | percent control (mortality, anti-feedant effect or growth inhibition) at 200 ppm [6] | percent effect (mortality or growth inhibition) at 200 ppm [7]

CCS(=O)(=O)c1c(N2Cc3cc4c(cc3C2=O)OC(F)(F)O4)nc(-c2cncnc2)n1C [Compound P7, 6-(5-ethylsulfonyl-1-methyl-2-pyrimidin-5-yl-imidazol-4-yl)-2,2-difluoro-5H-[1,3]dioxolo[4,5-f]isoindol-7-one]
≥ 80%: mortality at 24 ppm [2] | percent effect (mortality or growth inhibition) at 200 ppm [7]

CCS(=O)(=O)c1c(N2Cc3cc4c(cc3C2=O)OC(F)(F)O4)nc(-c2cnn(CC(F)F)c2)n1C [Compound P4, 6-[2-[1-(2,2-difluoroethyl)pyrazol-4-yl]-5-ethylsulfonyl-1-methyl-imidazol-4-yl]-2,2-difluoro-5H-[1,3]dioxolo[4,5-f]isoindol-7-one]
≥ 80%: percent effect (mortality or growth inhibition) at 200 ppm [1] | mortality at 24 ppm [2] | percent effect (mortality or growth inhibition) at 200 ppm [3] | mortality at 200 ppm [5] | percent control (mortality, anti-feedant effect or growth inhibition) at 200 ppm [6] | percent effect (mortality or growth inhibition) at 200 ppm [7]

CCS(=O)(=O)c1cc(OCC(C)(F)F)cnc1N1Cc2cc3c(cc2C1=O)OC(F)(F)O3 [Compound P12, 6-[5-(2,2-difluoropropoxy)-3-ethylsulfonyl-2-pyridyl]-2,2-difluoro-5H-[1,3]dioxolo[4,5-f]isoindol-7-one]
≥ 80%: percent effect (mortality or growth inhibition) at 200 ppm [1] | percent effect (mortality or growth inhibition) at 200 ppm [3] | percent control (mortality, anti-feedant effect or growth inhibition) at 200 ppm [4] | mortality at 200 ppm [5] | percent control (mortality, anti-feedant effect or growth inhibition) at 200 ppm [6] | percent effect (mortality or growth inhibition) at 200 ppm [7]

CCS(=O)(=O)c1c(N2Cc3cc4c(cc3C2=O)OC(F)(F)O4)nc(-c2cnn(CC3(C#N)CC3)c2)n1C [Compound P5, 1-[[4-[4-(2,2-difluoro-7-oxo-5H-[1,3]dioxolo[4,5-f]isoindol-6-yl)-5-ethylsulfonyl-1-methyl-imidazol-2-yl]pyrazol-1-yl]methyl]cyclopropanecarbonitrile]
≥ 80%: mortality at 24 ppm [2] | mortality at 200 ppm [5] | percent effect (mortality or growth inhibition) at 200 ppm [7]

CCS(=O)(=O)c1c(N2Cc3cc4c(cc3C2=O)OC(F)(F)O4)nc(-c2cnn(C3CC3)c2)n1C [Compound P17, 6-[2-(1-cyclopropylpyrazol-4-yl)-5-ethylsulfonyl-1-methyl-imidazol-4-yl]-2,2-difluoro-5H-[1,3]dioxolo[4,5-f]isoindol-7-one]
≥ 80%: percent effect (mortality or growth inhibition) at 200 ppm [1] | percent effect (mortality or growth inhibition) at 200 ppm [3] | percent control (mortality, anti-feedant effect or growth inhibition) at 200 ppm [4] | mortality at 200 ppm [5] | percent control (mortality, anti-feedant effect or growth inhibition) at 200 ppm [6] | percent effect (mortality or growth inhibition) at 200 ppm [7]

CCS(=O)(=O)c1c(N2Cc3cc4c(cc3C2=O)OC(F)(F)O4)nc(-n2ccc(Cl)n2)n1C [Compound P21, 6-[2-(3-chloropyrazol-1-yl)-5-ethylsulfonyl-1-methyl-imidazol-4-yl]-2,2-difluoro-5H-[1,3]dioxolo[4,5-f]isoindol-7-one]
≥ 80%: percent effect (mortality or growth inhibition) at 200 ppm [1] | percent effect (mortality or growth inhibition) at 200 ppm [3] | percent control (mortality, anti-feedant effect or growth inhibition) at 200 ppm [4] | mortality at 200 ppm [5] | percent effect (mortality or growth inhibition) at 200 ppm [7]

CCS(=O)(=O)c1cc(C2CC2)cnc1N1Cc2cc3c(cc2C1=O)OC(F)(F)O3 [Compound P19, 6-(5-cyclopropyl-3-ethylsulfonyl-2-pyridyl)-2,2-difluoro-5H-[1,3]dioxolo[4,5-f]isoindol-7-one]
≥ 80%: percent effect (mortality or growth inhibition) at 200 ppm [3] | percent control (mortality, anti-feedant effect or growth inhibition) at 200 ppm [4] | mortality at 200 ppm [5] | percent control (mortality, anti-feedant effect or growth inhibition) at 200 ppm [6] | percent effect (mortality or growth inhibition) at 200 ppm [7]

CCS(=O)(=O)c1cc(C(F)(F)F)cnc1N1Cc2cc3c(cc2C1=O)OC(F)(F)O3 [Compound P13, 6-[3-ethylsulfonyl-5-(trifluoromethyl)-2-pyridyl]-2,2-difluoro-5H-[1,3]dioxolo[4,5-f]isoindol-7-one]
≥ 80%: percent control (mortality, anti-feedant effect or growth inhibition) at 200 ppm [4] | percent control (mortality, anti-feedant effect or growth inhibition) at 200 ppm [6] | percent effect (mortality or growth inhibition) at 200 ppm [7]
